A short description of the data set: log P by HPLC on reversed-phase column (C 18), acidic range. Format: physicochemical. As to the method: Temperature: 43° C. […] The log P values given in Table 3 were determined in accordance with EEC Directive 79/831 Annex V.A8 by HPLC (High Performance Liquid Chromatography) on a reversed-phase column (C 18). Temperature: 43° C. […] The log P values given in Tables 4 were determined in accordance with EEC Directive 79/831 Annex V.A8 by HPLC (High Performance Liquid Chromatography) on a reversed-phase column (C 18). Temperature: 43° C.

This is an account of results in US7279444B2, “Substituted benzoylpyrazoles” (Bayer CropScience GmbH, priority 1999, dated 2007).

Marks after values point to notes of the source that are not given here.

Consider `CCOc1nn(Cc2c(Cl)ccc(C(=O)c3c(C)nn(C)c3O)c2Cl)c(=O)n1C` [Example 52], for which the logP result is listed as “logP = 1.76^a)”. As for `COc1nn(Cc2c(Cl)ccc(C(=O)c3c(C)nn(C)c3O)c2Cl)c(=O)n1C` [Example 53], the logP result is reported as “logP = 1.48^a)”.

`Cc1nn(C)c(O)c1C(=O)c1ccc(Cl)c(Cn2nc(C)n(C)c2=O)c1Cl` [Example 54]: the logP entry is recorded as “logP = 1.20^a)”. As for `CSc1nn(Cc2c(Cl)ccc(C(=O)c3cnn(C)c3O)c2Cl)c(=O)n1C` [Example 55], the logP result was “logP = 1.67^a)”. Take `CCOc1nn(Cc2c(Cl)ccc(C(=O)c3cnn(C)c3O)c2Cl)c(=O)n1C` [Example 56]: the logP entry is “logP = 1.77^a)”. As to `COc1nn(Cc2c(Cl)ccc(C(=O)c3cnn(C)c3O)c2Cl)c(=O)n1C` [Example 57], the logP entry is listed as “logP = 1.48^a)”. Turning to `Cc1nn(Cc2c(Cl)ccc(C(=O)c3cnn(C)c3O)c2Cl)c(=O)n1C` [Example 58], the logP result is listed as “logP = 1.19^a)”. On to `CCOc1nn(Cc2ccc(C(=O)c3cnn(CC)c3O)c([N+](=O)[O-])c2OC)c(=O)n1C` [Example 59], for which the logP entry was “logP = 1.99^a)”.

As for `CCn1ncc(C(=O)c2ccc(Cn3nc(SC)n(C)c3=O)c(OC)c2[N+](=O)[O-])c1O` [Example 60], the logP entry is “logP = 1.92^a)”. Take `CCn1ncc(C(=O)c2ccc(Cl)c(Cn3nc(SC)n(C)c3=O)c2F)c1O` [Example 62]: the logP entry is given as “logP = 1.99^a)”.

Regarding `CCn1ncc(C(=O)c2ccc(C(F)(F)F)cc2Cn2nc(C)n(C)c2=O)c1O` [Example 64], the logP result is listed as “logP = 1.80^a)”. For `CCn1ncc(C(=O)c2ccc(C(F)(F)F)cc2Cn2nc(COC)n(C)c2=O)c1O` [Example 65] the value was “logP =1.98^a)”. In the case of `CCn1ncc(C(=O)c2ccc(C(F)(F)F)cc2Cn2nc(OC)n(C)c2=O)c1O` [Example 66], the logP entry is “logP = 2.27^a)”.

Consider `CCn1ncc(C(=O)c2ccc(S(C)(=O)=O)cc2Cn2nc(C(F)(F)F)n(C)c2=O)c1O` [Example 67], for which the logP result is “logP = 1.60^a)”. For the compound `CCn1ncc(C(=O)c2ccc(S(C)(=O)=O)cc2Cn2nc(OCC(F)(F)F)n(C)c2=O)c1O` [Example 68], the logP result is “logP = 1.73^a)”. For `CCn1ncc(C(=O)c2ccc(F)c(Cn3nc(C)n(C)c3=O)c2Cl)c1O` [Example 69], the logP entry was “logP = 1.76^a)”.

As to `CCn1ncc(C(=O)c2ccc(F)c(Cn3nc(SC)n(C)c3=O)c2Cl)c1O` [Example 70], the logP result is “logP = 1.76^a)”. Regarding `CCn1ncc(C(=O)c2ccc(F)c(Cn3nc(OC)n(C)c3=O)c2Cl)c1O` [Example 71], the logP entry was “logP = 1.55^a)”. For `CCn1ncc(C(=O)c2ccc(F)c(Cn3nc(N(C)C)n(C)c3=O)c2Cl)c1O` [Example 72] the value was “logP = 1.62^a)”. For the compound `CCn1ncc(C(=O)c2ccc(Cl)c(CN3CCN(C)C3=O)c2Cl)c1O` [ID-1], the logP result is listed as “logP = 1.64^a)”. For `CCn1ncc(C(=O)c2ccc(Cl)c(CN3CCCN(C)C3=O)c2Cl)c1O` [ID-2], the logP result is “logP = 1.77^a)”. In the case of `CN1CCCN(Cc2c(Cl)ccc(C(=O)c3cnn(C)c3O)c2Cl)C1=O` [ID-3], the logP entry is recorded as “logP = 1.52^a)”.

As to `Cc1nn(C)c(O)c1C(=O)c1ccc(Cl)c(CN2CCCN(C)C2=O)c1Cl` [ID-4], the logP entry is on record as “logP = 1.50^a)”.

Take `CCn1nc(C)c(C(=O)c2ccc(Cl)c(CN3CCCN(C)C3=O)c2Cl)c1O` [ID-5]: the logP entry is on record as “logP = 1.72^a)”.

Consider `Cc1nn(C(C)(C)C)c(O)c1C(=O)c1ccc(Cl)c(CN2CCCN(C)C2=O)c1Cl` [ID-6], for which the logP result is reported as “logP = 3.01^a)”.

For `CCn1ncc(C(=O)c2ccc(C(F)(F)F)cc2Cn2nc(SC)sc2=O)c1O` [ID-7], the logP entry is given as “logP = 2.98^a)”. Consider `CCn1ncc(C(=O)c2ccc(C(F)(F)F)cc2Cn2cc(Cl)cc(Cl)c2=O)c1O` [ID-8], for which the logP result was “logP = 2.75^a)”.

Regarding `CCOc1nn(Cc2cc(C(F)(F)F)ccc2C(=O)c2cnn(CC)c2OS(=O)(=O)c2ccc(C)cc2)c(=O)n1C` [ID-9], the logP result is given as “logP = 3.82^a)”. With `CCn1ncc(C(=O)c2ccc(C(F)(F)F)cc2Cn2nc(SC)n(C)c2=O)c1OS(=O)(=O)c1ccc(C)cc1` [ID-10], the logP result is “logP = 3.73^a)”. As to `CCOc1nn(Cc2cc(C(F)(F)F)ccc2C(=O)c2cnn(CC)c2OS(C)(=O)=O)c(=O)n1C` [ID-11], the logP result is “logP = 3.25^a)”.

For `CCn1ncc(C(=O)c2ccc(C(F)(F)F)cc2Cn2nc(SC)n(C)c2=O)c1OS(C)(=O)=O` [ID-12], the logP result is reported as “logP = 2.82^a)”.

As for `CCOc1nn(Cc2cc(C(F)(F)F)ccc2C(=O)c2cnn(CC)c2OC)c(=O)n1C` [ID-13], the logP entry was “logP = 2.74^a)”. With `CCOc1c(C(=O)c2ccc(C(F)(F)F)cc2Cn2nc(OCC)n(C)c2=O)cnn1CC` [ID-14], the logP result is listed as “logP = 2.82^a)”. For the compound `CCOc1nn(Cc2cc(C(F)(F)F)ccc2C(=O)c2cnn(CC)c2OC(C)C)c(=O)n1C` [ID-15], the logP entry is recorded as “logP = 3.11^a)”. For the compound `C=CCOc1c(C(=O)c2ccc(C(F)(F)F)cc2Cn2nc(OCC)n(C)c2=O)cnn1CC` [ID-16], the logP entry is reported as “logP = 2.99^a)”. Consider `CCOc1nn(Cc2cc(C(F)(F)F)ccc2C(=O)c2cnn(CC)c2OCc2ccccc2)c(=O)n1C` [ID-17], for which the logP entry is given as “logP = 3.45^a)”.

For the compound `CCOc1nn(Cc2cc(C(F)(F)F)ccc2C(=O)c2cnn(CC)c2OCc2ccc(C)cc2)c(=O)n1C` [ID-18], the logP entry is “logP = 3.79^a)”. For `CCOc1nn(Cc2cc(C(F)(F)F)ccc2C(=O)c2cnn(CC)c2OCc2ccc(Br)cc2)c(=O)n1C` [ID-19], the logP result is given as “logP = 3.97^a)”. Consider `CCOc1nn(Cc2cc(C(F)(F)F)ccc2C(=O)c2cnn(CC)c2OCc2ccc(C#N)cc2)c(=O)n1C` [ID-20], for which the logP entry is listed as “logP = 3.12^a)”. Regarding `CCOc1nn(Cc2cc(C(F)(F)F)ccc2C(=O)c2cnn(CC)c2OCc2ccc(F)cc2)c(=O)n1C` [ID-21], the logP entry is listed as “logP = 3.49^a)”. Regarding `CCOc1nn(Cc2cc(C(F)(F)F)ccc2C(=O)c2cnn(CC)c2OCc2ccc(Cl)cc2)c(=O)n1C` [ID-22], the logP entry is “logP = 3.85^a)”. Regarding `CCOc1nn(Cc2cc(C(F)(F)F)ccc2C(=O)c2cnn(CC)c2OCc2ccc(Cl)c(Cl)c2)c(=O)n1C` [ID-23], the logP entry was “logP = 4.26^a)”.

Take `CCOc1nn(Cc2cc(C(F)(F)F)ccc2C(=O)c2cnn(CC)c2OCc2cccc(Cl)c2)c(=O)n1C` [ID-24]: the logP entry was “logP = 3.84^a)”.

`CCOc1nn(Cc2cc(C(F)(F)F)ccc2C(=O)c2cnn(CC)c2OCc2ccc([N+](=O)[O-])cc2)c(=O)n1C` [ID-25]: the logP entry is given as “logP = 3.33^a)”. `CCOc1nn(Cc2cc(C(F)(F)F)ccc2C(=O)c2cnn(CC)c2OCc2ccc(C(F)(F)F)cc2)c(=O)n1C` [ID-26]: the logP result was “logP = 3.98^a)”. For `CCOc1nn(Cc2cc(C(F)(F)F)ccc2C(=O)c2cnn(CC)c2OCc2cccc(C(F)(F)F)c2)c(=O)n1C` [ID-27] the value was “logP = 3.94^a)”; for `CCn1ncc(C(=O)c2ccc(C(F)(F)F)cc2Cn2nc(SC)n(C)c2=O)c1OC` [ID-30], “logP = 2.65^a)”; for `CCOc1c(C(=O)c2ccc(C(F)(F)F)cc2Cn2nc(SC)n(C)c2=O)cnn1CC` [ID-31], “logP = 2.71^a)”. Regarding `CCn1ncc(C(=O)c2ccc(C(F)(F)F)cc2Cn2nc(SC)n(C)c2=O)c1OC(C)C` [ID-32], the logP result is “logP = 3.00^a)”. To `C=CCOc1c(C(=O)c2ccc(C(F)(F)F)cc2Cn2nc(SC)n(C)c2=O)cnn1CC` [ID-33] belongs “logP = 2.89^a)”; to `CCn1ncc(C(=O)c2ccc(C(F)(F)F)cc2Cn2nc(SC)n(C)c2=O)c1OCc1ccccc1` [ID-34], “logP = 3.37^a)”; to `CCn1ncc(C(=O)c2ccc(C(F)(F)F)cc2Cn2nc(SC)n(C)c2=O)c1OCc1ccc(C)cc1` [ID-35], “logP = 3.71^a)”.

As to `CCn1ncc(C(=O)c2ccc(C(F)(F)F)cc2Cn2nc(SC)n(C)c2=O)c1OCc1ccc(Br)cc1` [ID-36], the logP entry was “logP = 3.89^a)”. For `CCn1ncc(C(=O)c2ccc(C(F)(F)F)cc2Cn2nc(SC)n(C)c2=O)c1OCc1ccc(C#N)cc1` [ID-37] the value was “logP =3.06^a)”. Consider `CCn1ncc(C(=O)c2ccc(C(F)(F)F)cc2Cn2nc(SC)n(C)c2=O)c1OCc1ccc(F)cc1` [ID-38], for which the logP result is “logP = 3.41^a)”. For the compound `CCn1ncc(C(=O)c2ccc(C(F)(F)F)cc2Cn2nc(SC)n(C)c2=O)c1OCc1ccc(Cl)cc1` [ID-39], the logP entry is on record as “logP = 3.78^a)”. For `CCn1ncc(C(=O)c2ccc(C(F)(F)F)cc2Cn2nc(SC)n(C)c2=O)c1OCc1ccc(Cl)c(Cl)c1` [ID-40] the value was “logP = 4.17^a)”; for `CCn1ncc(C(=O)c2ccc(C(F)(F)F)cc2Cn2nc(SC)n(C)c2=O)c1OCc1cccc(Cl)c1` [ID-41], “logP = 3.76^a)”; for `CCn1ncc(C(=O)c2ccc(C(F)(F)F)cc2Cn2nc(SC)n(C)c2=O)c1OCc1ccc([N+](=O)[O-])cc1` [ID-42], “logP = 3.26^a)”. Consider `CCn1ncc(C(=O)c2ccc(C(F)(F)F)cc2Cn2nc(SC)n(C)c2=O)c1OCc1ccc(C(F)(F)F)cc1` [ID-43], for which the logP result is on record as “logP = 3.89^a)”.

In the case of `CCn1ncc(C(=O)c2ccc(C(F)(F)F)cc2Cn2nc(SC)n(C)c2=O)c1OCc1cccc(C(F)(F)F)c1` [ID-44], the logP entry is “logP = 3.85^a)”.

For `CCn1ncc(C(=O)c2ccc(C(F)(F)F)cc2Cn2nc(SC)n(C)c2=O)c1OCC(=O)c1ccccc1` [ID-45], the logP entry is “logP = 3.19^a)”.

As for `CCn1ncc(C(=O)c2ccc(C(F)(F)F)cc2Cn2nc(SC)n(C)c2=O)c1OCC(=O)c1ccc(C)cc1` [ID-46], the logP result is “logP = 3.47^a)”. On to `CCn1ncc(C(=O)c2ccc(C(F)(F)F)cc2Cn2nc(SC)n(C)c2=O)c1OCC(=O)c1ccc(Cl)cc1` [ID-47], for which the logP result is listed as “logP = 3.64^a)”. Consider `CN1CCN(Cc2c(Cl)ccc(C(=O)c3cnn(C)c3O)c2Cl)C1=O` [ID-50], for which the logP entry is reported as “logP = 1.41^a)”.
